Test results taken from patent publication US6737383B1, “Herbicidal oxadiazolidines” (priority 1999, dated 2004).

Experiments:
rape = test: Test B pre/postemergence rape; assay type: in vivo, Brassica napus
Method in brief: (§1)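 Test chemicals in a non-phytotoxic solvent mixture with surfactant were sprayed preemergence onto planted seeds and postemergence onto plants 2 to 18 cm tall (1- to 4-leaf stage). After twelve to sixteen days in a greenhouse, injury was visually rated against untreated controls from 0 (no effect) to 10 (complete control).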

soybean = test: Test B pre/postemergence soybean; assay type: in vivo, Glycine max
Method in brief: as §1

bedstraw = test: Test B pre/postemergence bedstraw; assay type: in vivo, Galium aparine
Method in brief: as §1

wheat = test: Test B pre/postemergence wheat; assay type: in vivo, Triticum aestivum
Method in brief: as §1

wild oat = test: Test B pre/postemergence wild oat; assay type: in vivo, Avena fatua
Method in brief: as §1

corn = test: Test B pre/postemergence corn; assay type: in vivo, Zea mays
Method in brief: as §1

surinam grass = test: Test B pre/postemergence surinam grass; assay type: in vivo, Brachiaria decumbens
Method in brief: as §1

cocklebur = test: Test B pre/postemergence cocklebur; assay type: in vivo, Xanthium strumarium
Method in brief: as §1

giant foxtail = test: Test B pre/postemergence giant foxtail; assay type: in vivo, Setaria faberii
Method in brief: as §1

purple nutsedge = test: Test B pre/postemergence purple nutsedge; assay type: in vivo, Cyperus rotundus
Method in brief: as §1

sugar beet = test: Test B pre/postemergence sugar beet; assay type: in vivo, Beta vulgaris
Method in brief: as §1

velvetleaf = test: Test B pre/postemergence velvetleaf; assay type: in vivo, Abutilon theophrasti
Method in brief: as §1

pigweed = test: Test B pre/postemergence pigweed; assay type: in vivo, Amaranthus retroflexus
Method in brief: as §1

[1] = Postemergence, Rate 125 g/ha, scale of 0 to 10 where 0 is no effect and 10 is complete control
[2] = Preemergence, Rate 62 g/ha, scale of 0 to 10 where 0 is no effect and 10 is complete control
[3] = Preemergence, Rate 125 g/ha, 0 is no effect, 10 is complete control
[4] = Preemergence, Rate 250 g/ha, scale 0 to 10, 0 is no effect, 10 is complete control
[5] = Preemergence, Rate 500 g/ha, scale 0 to 10 (0 no effect, 10 complete control)
[6] = Rate 62 g/ha, Postemergence, scale of 0 to 10 where 0 is no effect and 10 is complete control
[7] = Rate 250 g/ha, Postemergence, scale 0 to 10, 0 is no effect, 10 is complete control
[8] = Rate 500 g/ha, Postemergence, scale 0 to 10

## CC1CCCCC1n1c(=O)on(C(=O)N(c2ccc(F)cc2)C(C)C)c1=O (centres unmarked) [Compound 161]
rape; [1]
  Rape plant response rating: 0
rape; [2]
  Rape plant response rating: 0
rape; [3]
  Rape plant response rating (0 to 10 scale): 0
rape; [4]
  Rape plant response rating: 0
rape; [5]
  Rape plant response rating: 3
rape; [6]
  Rape plant response rating: 0
rape; [7]
  Plant response rating, Rape: 0
rape; [8]
  Rape plant response rating: 4
soybean; [1]
  Soybean plant response rating: 2
soybean; [2]
  Soybean plant response rating: 0
soybean; [3]
  Soybean plant response rating (0 to 10 scale): 0
soybean; [4]
  Soybean plant response rating: 0
soybean; [5]
  Soybean plant response rating: 0
soybean; [6]
  Soybean plant response rating: 2
soybean; [7]
  Plant response rating, Soybean: 4
soybean; [8]
  Soybean plant response rating: 4
bedstraw; [1]
  Bedstraw plant response rating: 3
bedstraw; [2]
  Bedstraw plant response rating: 0
bedstraw; [3]
  Bedstraw plant response rating (0 to 10 scale): 0
bedstraw; [4]
  Bedstraw plant response rating: 0
bedstraw; [5]
  Bedstraw plant response rating: 0
bedstraw; [6]
  Bedstraw plant response rating: 0
bedstraw; [7]
  Plant response rating, Bedstraw: 4
bedstraw; [8]
  Bedstraw plant response rating: 4
wheat; [2]
  Wheat plant response rating: 0
wheat; [3]
  Wheat plant response rating (0 to 10 scale): 0
wheat; [4]
  Wheat plant response rating: 0
wheat; [5]
  Wheat plant response rating: 2
wheat; [7]
  Plant response rating, Wheat: 0
wheat; [8]
  Wheat plant response rating: 0
Wild oat; [2]
  Wild oats plant response rating: 0
Wild oat; [3]
  Wild oats plant response rating (0 to 10 scale): 0
Wild oat; [4]
  Wild oats plant response rating: 3
Wild oat; [5]
  Wild oats plant response rating: 6
Wild oat; [7]
  Plant response rating, Wild oats: 0
Wild oat; [8]
  Wild oats plant response rating: 0
corn; [1]
  Corn plant response rating: 0
corn; [2]
  Corn plant response rating: 0
corn; [3]
  Corn plant response rating (0 to 10 scale): 0
corn; [4]
  Corn plant response rating: 0
corn; [5]
  Corn plant response rating: 0
corn; [6]
  Corn plant response rating: 0
corn; [7]
  Plant response rating, Corn: 0
corn; [8]
  Corn plant response rating: 0
Surinam grass; [1]
  B. signalgrass plant response rating: 0
Surinam grass; [2]
  B. signalgrass plant response rating: 0
Surinam grass; [3]
  B. signalgrass plant response rating (0 to 10 scale): 0
Surinam grass; [4]
  B. signalgrass plant response rating: 5
Surinam grass; [5]
  B. signalgrass plant response rating: 5
Surinam grass; [6]
  B. signalgrass plant response rating: 0
Surinam grass; [7]
  Plant response rating, B. signalgrass: 2
Surinam grass; Rate 500 g/ha, Postemergence, scale 0 to 10, 0 no effect, 10 complete control
  B. signalgrass plant response rating: 7
cocklebur; [1]
  Cocklebur plant response rating: 0
cocklebur; [2]
  Cocklebur plant response rating: 0
cocklebur; [3]
  Cocklebur plant response rating (0 to 10 scale): 0
cocklebur; [4]
  Cocklebur plant response rating: 0
cocklebur; [5]
  Cocklebur plant response rating: 0
cocklebur; [6]
  Cocklebur plant response rating: 0
cocklebur; [7]
  Plant response rating, Cocklebur: 0
cocklebur; [8]
  Cocklebur plant response rating: 3
Giant foxtail; [1]
  Giant foxtail plant response rating: 0
Giant foxtail; [2]
  Giant foxtail plant response rating: 4
Giant foxtail; [3]
  Giant foxtail plant response rating (0 to 10 scale): 9
Giant foxtail; [4]
  Giant foxtail plant response rating: 9
Giant foxtail; [5]
  Giant foxtail plant response rating: 10
Giant foxtail; [6]
  Giant foxtail plant response rating: 0
Giant foxtail; [7]
  Plant response rating, Giant foxtail: 3
Giant foxtail; [8]
  Giant foxtail plant response rating: 7
Purple nutsedge; [1]
  Nutsedge plant response rating: 0
Purple nutsedge; [2]
  Nutsedge plant response rating: 0
Purple nutsedge; [3]
  Nutsedge plant response rating (0 to 10 scale): 0
Purple nutsedge; [4]
  Nutsedge plant response rating: 0
Purple nutsedge; [5]
  Nutsedge plant response rating: 0
Purple nutsedge; [6]
  Nutsedge plant response rating: 0
Purple nutsedge; [7]
  Plant response rating, Nutsedge: 0
Purple nutsedge; [8]
  Nutsedge plant response rating: 0
Sugar beet; [1]
  Sugarbeets plant response rating: 2
Sugar beet; [2]
  Sugarbeets plant response rating: 0
Sugar beet; [3]
  Sugarbeets plant response rating (0 to 10 scale): 0
Sugar beet; [4]
  Sugarbeets plant response rating: 0
Sugar beet; [5]
  Sugarbeets plant response rating: 0
Sugar beet; [6]
  Sugarbeets plant response rating: 0
Sugar beet; [7]
  Plant response rating, Sugarbeets: 4
Sugar beet; [8]
  Sugarbeets plant response rating: 7
velvetleaf; [2]
  Velvetleaf plant response rating: 0
velvetleaf; [3]
  Velvetleaf plant response rating (0 to 10 scale): 0
velvetleaf; [4]
  Velvetleaf plant response rating: 0
velvetleaf; [5]
  Velvetleaf plant response rating: 0
velvetleaf; [7]
  Plant response rating, Velvetleaf: 2
velvetleaf; [8]
  Velvetleaf plant response rating: 6
pigweed; [1]
  Redroot pigweed plant response rating: 0
pigweed; [2]
  Redroot pigweed plant response rating: 0
pigweed; [3]
  Redroot pigweed plant response rating (0 to 10 scale): 0
pigweed; [4]
  Redroot pigweed plant response rating: 4
pigweed; [5]
  Redroot pigweed plant response rating: 10
pigweed; [6]
  Redroot pigweed plant response rating: 0
pigweed; [7]
  Plant response rating, Redroot pigweed: 4
pigweed; [8]
  Redroot pigweed plant response rating: 5
